From patent publication US20130143929A1, “FUNGICIDAL IMIDAZOLES” (EI DU PONT DE NEMOURS AND COMPANY, priority 2010, published 2013)
Marks after values point to notes of the source that are not given here.

Legend:
Format in all cases: in vivo
[1] = test system: Blumeria graminis f. sp. tritici (also known as Erysiphe graminis f. sp. tritici, the causal agent of wheat powdery mildew); assay: Test D: wheat powdery mildew, preventive spray on wheat seedlings, visual disease rating; settings: wheat powdery mildew, preventive spray on wheat seedlings
Description: (§1) General protocol for preparing test suspensions for Tests A-D: the test compounds were first dissolved in acetone in an amount equal to 3% of the final volume and then suspended at the desired concentration (in ppm) in acetone and purified water (50/50 mix by volume) containing 250 ppm of the surfactant Trem® 014 (polyhydric alcohol esters). The resulting test suspensions were then used in Tests A-D. Spraying a 200 ppm test suspension to the point of run-off on the test plants was the equivalent of a rate of 800 g/ha.
The test suspension was sprayed to the point of run-off on wheat seedlings. The following day the seedlings were inoculated with a spore dust of Blumeria graminis f. sp. tritici, (also known as Erysiphe graminis f. sp. tritici, the causal agent of wheat powdery mildew) and incubated in a growth chamber at 20° C. for 8 days, after which time visual disease ratings were made.
(§2) Results for Tests A-E are given in Table A. In the Table, a rating of 100 indicates 100% disease control and a rating of 0 indicates no disease control (relative to the controls). A dash (—) indicates no test results. An asterisk “*” next to the rating value indicates a 40 ppm test suspension was used.

[2] = test system: Puccinia recondite f. sp. tritici (the causal agent of wheat leaf rust); assay: Test A: wheat leaf rust, preventive spray on wheat seedlings, visual disease rating; settings: wheat leaf rust, preventive spray on wheat seedlings
Description: as §1
The test suspension was sprayed to the point of run-off on wheat seedlings. The following day the seedlings were inoculated with a spore suspension of Puccinia recondite f. sp. tritici (the causal agent of wheat leaf rust) and incubated in a saturated atmosphere at 20° C. for 24 h, and then moved to a growth chamber at 20° C. for 7 days, after which time visual disease ratings were made.
as §2

[3] = test system: Septoria tritici (the causal agent of wheat leaf blotch); assay: Test B: wheat leaf blotch, preventive spray on wheat seedlings, visual disease rating; settings: wheat leaf blotch, preventive spray on wheat seedlings
Description: as §1
(§3) The test suspension was sprayed to the point of run-off on wheat seedlings. The following day the seedlings were inoculated with a spore suspension of Septoria tritici (the causal agent of wheat leaf blotch) and incubated in a saturated atmosphere at 24° C. for 48 h, and then moved to a growth chamber at 20° C. for 19 days, after which time visual disease ratings were made.
as §2

[4] = test system: Botrytis cinerea (the causal agent of tomato Botrytis); assay: Test C: tomato Botrytis, preventive spray on tomato seedlings, visual disease rating; settings: tomato Botrytis, preventive spray on tomato seedlings
Description: as §1
as §3, with “tomato” for “wheat”, “Botrytis cinerea” for “Septoria tritici”, “tomato Botrytis)” for “wheat leaf blotch)”, “20°” for “24°”, “24°” for “20°”, “3” for “19”
as §2

[5] = no asterisk (standard test suspension concentration, not 40 ppm)
[6] = asterisk: 40 ppm test suspension

SMILES | Test D rating (100 = 100% disease control, 0 = no disease control relative to the controls) [1, 5] | Test A rating (100 = 100% disease control, 0 = no disease control relative to the controls) [2, 5] | Test B rating (100 = 100% disease control, 0 = no disease control relative to the controls) [3, 5] | Test C rating (100 = 100% disease control, 0 = no disease control relative to the controls) [4, 5] | Test D rating (100 = 100% disease control, 0 = no disease control relative to the controls) [1, 6] | Test A rating (100 = 100% disease control, 0 = no disease control relative to the controls) [2, 6] | Test B rating (100 = 100% disease control, 0 = no disease control relative to the controls) [3, 6] | Test C rating (100 = 100% disease control, 0 = no disease control relative to the controls) [4, 6]
Cc1ncc(C(O)c2c(F)cc(F)cc2F)n1-c1c(Cl)cccc1Cl (racemic) [compound 227] | 0% | 84% | 83% | 40% |  |  |  | 
COc1cc(C)c(C(O)c2c(Br)ncn2-c2ccc(F)cc2Cl)cc1Br (racemic) [compound 229] |  |  |  |  | 0* % | 68* % | 36* % | 0* %
COc1ccc(C(O)c2c(Br)ncn2-c2ccc(F)cc2Cl)c(F)c1 (racemic) [compound 230] |  |  |  |  | 0* % | 97* % | 50* % | 99* %
COc1ccc(C(O)c2c(Cl)nc(C)n2-c2c(F)cc(F)cc2Br)c(Cl)c1 (racemic) [compound 231] |  |  |  |  | 98* % | 100* % | 100* % | 99* %
OC(c1ccc(F)cc1Cl)c1c(Br)nc(Br)n1-c1ccc(F)cc1Cl (racemic) [compound 233] |  |  |  |  | 72* % | 100* % | 100* % | 95* %
COc1cc(F)c(C(O)c2c(Cl)ncn2-c2ccc(F)cc2Cl)c(F)c1 (racemic) [compound 234] |  |  |  |  | 43* % | 99* % | 79* % | 26* %
COc1cc(F)c(C(O)c2c(Br)nc(Br)n2-c2ccc(F)cc2Cl)c(F)c1 (racemic) [compound 235] |  |  |  |  | 99* % | 100* % | 100* % | 100* %
COc1ccc(C(O)c2c(Cl)nc(Cl)n2-c2ccc(F)cc2F)c(Cl)c1 (racemic) [compound 236] |  |  |  |  | 99* % | 100* % | 100* % | 100* %
COc1ccc(C(O)c2c(Cl)nc(Br)n2-c2c(F)cccc2F)c(Cl)c1 (racemic) [compound 237] |  |  |  |  | 98* % | 100* % | 100* % | 100* %
Cc1nc(Br)c(C(O)c2ccc(F)cc2Cl)n1-c1ccc(F)cc1F (racemic) [compound 240] |  |  |  |  | 89* % | 99* % | 100* % | 99* %
Cc1nc(Cl)c(C(O)c2ccc(F)cc2Cl)n1-c1ccc(F)cc1F (racemic) [compound 241] |  |  |  |  | 21* % | 100* % | 100* % | 99* %
Cc1ncc(C(O)c2ccc(Cl)cc2)n1-c1ccc(Cl)cc1Cl (racemic) [compound 242] |  |  |  |  | 0* % | 94* % | 50* % | 29* %
Cc1nc(Br)c(C(O)c2ccc(Cl)cc2)n1-c1ccc(Cl)cc1Cl (racemic) [compound 243] |  |  |  |  | 79* % | 98* % | 95* % | 91* %
Cc1nc(Cl)c(C(O)c2ccc(Cl)cc2)n1-c1ccc(Cl)cc1Cl (racemic) [compound 244] |  |  |  |  | 21* % | 98* % | 100* % | 78* %
Cc1nc(C)n(-c2c(F)cc(F)cc2Cl)c1C(O)c1ccc(F)cc1F (racemic) [compound 245] |  |  |  |  | 84* % | 100* % | 100* % | 91* %
Cc1nc(C)n(-c2c(F)cc(Cl)cc2F)c1C(O)c1ccc(F)cc1F (racemic) [compound 246] |  |  |  |  | 0* % | 100* % | 100* % | 37* %
Cc1nc(Br)n(-c2c(F)cc(F)cc2Cl)c1C(O)c1ccc(F)cc1F (racemic) [compound 250] |  |  |  |  | 100* % | 100* % | 100* % | 100* %
Cc1ncc(C(O)c2ccc(F)cc2Br)n1-c1ccc(F)cc1Cl (racemic) [compound 251] | 0% | 100% | 93% | 98% |  |  |  | 
Cc1nc(Br)c(C(O)c2ccc(F)cc2Br)n1-c1ccc(F)cc1Cl (racemic) [compound 253] | 27% | 100% | 100% | 100% |  |  |  | 
COc1ccc(C(O)c2c(Br)nc(C)n2-c2ccc(F)cc2Cl)c(Cl)c1 (racemic) [compound 254] | 83% | 100% | 100% | 100% |  |  |  | 
